Experimental findings from paper PMC10244880, “Chromosome-level genome assembly of Salvia miltiorrhiza with orange roots uncovers the role of Sm2OGD3 in catalyzing 15,16-dehydrogenation of tanshinones” (Horticulture Research, 2023) are described below.

This test has as its target T1, Sm2OGD3 (Salvia miltiorrhiza, UniProt A0A8K1XH31).
T1 construct: gene TIIAS; full-length ORF (1119 nt, 373 aa printed) in pET-30a, E. coli BL21(DE3), crude extract
Kind of test: UPLC / LC-MS product assay, crude recombinant E. coli extract, initial rates. Type of test: biochemical. The following applies: 2-oxoglutarate, ferrous sulfate, L-ascorbate; pH 8.0, 30 °C.

T1 sequence (A0A8K1XH31 entry or part of it): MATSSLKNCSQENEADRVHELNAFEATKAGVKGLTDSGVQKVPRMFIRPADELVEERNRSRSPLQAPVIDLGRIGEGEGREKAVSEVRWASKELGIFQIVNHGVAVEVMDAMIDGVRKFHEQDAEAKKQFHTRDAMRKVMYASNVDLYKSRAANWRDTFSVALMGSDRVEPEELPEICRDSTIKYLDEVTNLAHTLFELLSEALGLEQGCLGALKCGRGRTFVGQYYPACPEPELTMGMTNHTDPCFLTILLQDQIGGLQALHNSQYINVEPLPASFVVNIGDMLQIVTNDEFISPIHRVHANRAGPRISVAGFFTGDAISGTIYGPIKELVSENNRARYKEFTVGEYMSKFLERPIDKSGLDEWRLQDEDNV

In the case of `CC1=CCCc2c1ccc1c2C(=O)C(=O)C2=C1OCC2C` (stereo not shown) [THT, 1,2,15,16-tetrahydrotanshinone I], the Km (as a rule, the substrate concentration at which the rate is half of its maximum) came to 20.9 µM.
